Source: article PMC8815882, “Screening the pandemic response box identified benzimidazole carbamates, Olorofim and ravuconazole as promising drug candidates for the treatment of eumycetoma” (PLoS Neglected Tropical Diseases, 2022)
Like-named read-outs stand apart in the source and are kept apart here.

System: M. mycetomatis genome strain MM55
Experiment: CLSI M38-A2 based in vitro susceptibility screening (XTT or resazurin), growth at fixed concentration
Format: cell-based, Madurella mycetomatis
Details: Madurella mycetomatis
[1] = mean of replicates, MM55, read-out: Percentage survival at 25um, 25 uM mean
[2] = replicate A, MM55, read-out: Percentage survival at 25um, 25 um A
[3] = replicate B, MM55, read-out: Percentage survival at 25um, 25 uM B
[4] = replicate C, MM55, read-out: Percentage survival at 25um, 25 uM C
[5] = 100 uM, mean of replicates, MM55, read-out: Percentage survival at 100um, 100 uM mean
[6] = 100 uM, replicate 1, MM55, read-out: Percentage survival at 100um, 100 uM A
[7] = 100 uM, replicate 2, MM55, read-out: Percentage survival at 100um, 100 uM A
[8] = 100 uM, replicate 3, MM55, read-out: Percentage survival at 100um, 100 uM A
[9] = mean of three replicates, read-out: Percentage survival at 25um, 25 uM mean
[10] = replicate A, read-out: Percentage survival at 25um, 25 um A
[11] = replicate B, read-out: Percentage survival at 25um, 25 uM B
[12] = replicate C, read-out: Percentage survival at 25um, 25 uM C
[13] = 100 uM, first replicate column, read-out: Percentage survival at 100um, 100 uM A
[14] = 100 uM, mean of three replicates, read-out: Percentage survival at 100um, 100 uM mean
[15] = 100 uM, second replicate column, read-out: Percentage survival at 100um, 100 uM A
[16] = 100 uM, third replicate column, read-out: Percentage survival at 100um, 100 uM A
[17] = mean, read-out: Percentage survival at 25um, 25 uM mean
[18] = 100 uM, mean, read-out: Percentage survival at 100um, 100 uM mean
[19] = 100 uM, replicate (first column), read-out: Percentage survival at 100um, 100 uM A
[20] = 100 uM, replicate (second column), read-out: Percentage survival at 100um, 100 uM A
[21] = 100 uM, replicate (third column), read-out: Percentage survival at 100um, 100 uM A

Compound	activity at 25 µM [9] [%]	activity at 25 µM [10] [%]	activity at 25 µM [11] [%]	activity at 25 µM [12] [%]	activity at 100 µM [13] [%]	activity at 100 µM [14] [%]	activity at 100 µM [15] [%]	activity at 100 µM [16] [%]	also measured
COCCn1cnc2c(=O)[nH]c(Nc3ccccc3)nc21 [MMV1782103]	–	–	–	–	–	–	–	–	activity at 25 µM [1]: 86.8%; activity at 25 µM [2]: 90%; activity at 25 µM [3]: 97.7%; activity at 25 µM [4]: 72.6%; activity at 100 µM [5]: 75.1%; activity at 100 µM [6]: 87.4%; activity at 100 µM [7]: 60.4%; activity at 100 µM [8]: 77.5%
NC(=O)c1nccn([C@@H]2O[C@H](CO)[C@@H](O)[C@H]2O)c1=O [MMV1782104]	99.8	102	107	90.3	97.1	86.1	97.7	63.4	–
O=c1oc2ccc(Br)cc2cc1CSc1ncc[nH]1 [MMV1782105]	79.9	77.1	83.9	78.6	62.8	63.6	59.4	68.5	–
CCc1cc(CCC(=O)Nc2ccccc2O)c(=O)[nH]c1C [MMV1782106]	91.9	84.9	85.4	105	83.7	83.9	82.9	85.1	–
O=c1[nH]c(=O)n(Cc2cccc(Oc3ccccc3)c2)cc1Nc1ccccc1 [MMV1782107]	91.7	75.5	83.9	116	90.6	71.8	77.9	47.1	–
CCCCc1ccc(S(=O)(=O)Nc2cc(C)on2)cc1 [MMV1782108]	–	90.5	80.2	87.6	–	–	–	–	activity at 25 µM [17]: 86.1%; activity at 100 µM [18]: 82.9%; activity at 100 µM [19]: 79.8%; activity at 100 µM [20]: 82.7%; activity at 100 µM [21]: 86.3%
O=C(N[C@H](Cc1cccc2ccccc12)C(=O)NCCc1c[nH]cn1)C1Cc2ccccc2C1 [MMV1782109]	–	88.1	81.3	72.6	–	–	–	–	activity at 25 µM [17]: 80.7%; activity at 100 µM [18]: 67%; activity at 100 µM [19]: 69.9%; activity at 100 µM [20]: 67.6%; activity at 100 µM [21]: 63.4%
O=C(CCc1ccc2c(c1)OCO2)NCc1ccc(-c2ccccc2F)cc1 [MMV1782110]	–	102	62.1	71.9	–	–	–	–	activity at 25 µM [17]: 78.7%; activity at 100 µM [18]: 77.4%; activity at 100 µM [19]: 79%; activity at 100 µM [20]: 73.6%; activity at 100 µM [21]: 79.5%
CC(C)C(=O)N[C@H]1[C@H]([C@H](O)[C@H](O)CO)OC(C(=O)O)=C[C@@H]1N=[N+]=[N-] [MMV1782111]	–	–	–	–	–	–	–	–	activity at 25 µM [1]: 95.4%; activity at 25 µM [2]: 71.1%; activity at 25 µM [3]: 133%; activity at 25 µM [4]: 82.3%; activity at 100 µM [5]: 57.6%; activity at 100 µM [6]: 71%; activity at 100 µM [7]: 27.4%; activity at 100 µM [8]: 74.4%
CCOC(=O)/C=C/[C@H](C[C@@H]1CCNC1=O)NC(=O)[C@H](CC)n1cccc(NC(=O)c2cc(C)on2)c1=O [MMV1782112]	92.1	76.9	89.6	110	81.9	68.4	76.6	46.5	–
CCCC1(C2CC2)c2cc(Cl)ccc2NC(=O)N1C (stereo not drawn) [MMV1782113]	–	–	–	–	–	–	–	–	activity at 25 µM [1]: 68.5%; activity at 25 µM [2]: 67.5%; activity at 25 µM [3]: 76.8%; activity at 25 µM [4]: 61.2%; activity at 100 µM [5]: 56.1%; activity at 100 µM [6]: 52.9%; activity at 100 µM [7]: 56.4%; activity at 100 µM [8]: 58.9%
O=C(NN1C(=O)[C@@H]2C3C=CC([C@H]4C[C@@H]34)[C@@H]2C1=O)c1ccc(C(F)(F)F)cc1 [MMV1782114]	90.1	95.2	94.5	80.6	–	84.5	–	–	activity at 100 µM (100 uM, replicate 1, read-out: Percentage survival at 100um, 100 uM A (first replicate column)): 90%; Percent fungal survival at 100 µM (100 uM, replicate 2, read-out: Percentage survival at 100um, 100 uM A (second replicate column)): 78.4%; activity at 100 µM (100 uM, replicate 3, read-out: Percentage survival at 100um, 100 uM A (third replicate column)): 85%
